Test results from patent US20190269705A1, “METHODS AND MATERIALS FOR TREATING GRAFT VERSUS HOST DISEASE” (Regents of the University of Minnesota, priority 2017, published 2019).
Entries after “also recorded” stand apart in the source; their conditions may differ.

Tests used:
[1] = tested on: stimulated CD4+ T cells; assay: 13C-glucose tracing of stimulated CD4 T cells (LC-HRMS); format: cell-based, mouse; conditions: 1 μM CB839, 13C-glucose, 24 hours
Description: ^13C-Glucose Activation: CD4 cells were activated on 5 μg/mL αCD3/CD28 for 3 days. At day 3, cells were pooled, washed 3× in PBS, and re-stimulated in presence of 1 μM CB839 or Vehicle (DMSO) and 11 mM ^13C glucose (Cambridge Isotope Labs, Cat #: CLM-1396-1). Cells were incubated for 24 hours at 37° C., then scraped and combined in triplicate. Cells were rinsed with 0.9% saline and metabolites were extracted in methanol. Metabolites measured by LC-High-Resolution Mass Spectrometer (LC-HRMS) using a Q-exactive machine. The time-dependent glucose labeling pattern was modeled as with the following equation: […]
^13C Tracing. To measure 13C-Glucose tracing in T cell activation, CD4 cells were stimulated on 5 μg/mL anti-CD3/CD28 for 3 days. At day 3, cells were pooled, washed 3× in PBS, and re-stimulated in presence of 1 uM CB839 or Vehicle (DMSO) and 11 mM 13C glucose (Cambridge Isotope Labs, Cat #: CLM-1396-1). Cells were incubated for 24 hours at 37 °C, then scraped and combined in triplicate. Cells were rinsed with 0.9% saline and metabolites were extracted in methanol. Metabolites measured by LC High-Resolution Mass Spectrometer (LC-HRMS) using a Q-Exactive machine as previously described(Liberti et al., 2017). The time-dependent glucose labeling pattern was modeled as with the following equation: […]

[2] = tested on: Th1 cells; assay: Intracellular metabolites by mass spectrometry and pathway analysis, Th1; format: cell-based, mouse; conditions: for Hits: Th1 Pathway
Description: Differentiation: CD4 cells were isolated as previously described and differentiated in subset-specific medium (in triplicate) for 3 days, split at day 3 with new media and IL-2, then allowed to incubate a further 2 days. At day 5, wells were combined, cells washed lx in MACS buffer, re-isolated for CD4 via AutoMACS Pro automated magnetic separator (Miltenyi, Cat #: 130-092-545). Metabolites from Th1 and Th17 cells were extracted as described above.
Differentiation. CD4 cells were isolated as previously described and differentiated in subset-specific medium in the presence of vehicle or CB839 (in triplicate) for 3 days, split at day 3 with new media and IL-2, then allowed to incubate a further 2 days. At day 5, wells were combined, cells washed 1× in MACS buffer and re-isolated for CD4 via AutoMACS Pro automated magnetic separator (Miltenyi, Cat #: 130-092-545). Metabolites from Th1 and Th17 cells were extracted and analyzed by LC-HRMS using a Q-Exactive as described previously (Gerriets et al., 2015). Data were range scaled and analyzed using Metaboanalyst 3.5 (Xia and Wishart, 2002) to generate heat maps and for principle component analyses.

[3] = tested on: Eμ B ALL cells; assay: In vitro CAR T cell co-culture with target Eμ B ALL cells; format: cell-based, mouse; conditions: CAR-T cells treated with CB839 before co-culture
Source text: T cells were isolated from wild type C57BL6 spleens using the Pan T Cell isolation kit (Cat #: 130-095-130) and were activated on anti-CD3 anti-CD28 coated plates with IL2 for four days with or without CB839. On days 1 and 2, T cells were transduced with retrovirus produced by Plat-E cells carrying the CAR construct targeting CD19 with GFP reporter. On day 4, CAR T cells were washed three times to remove any drug remnants and plated to equal concentrations on a 96 well plate at 5×10^5 cells per well and serial dilutions thereof. 5×10^5 Emu cells, a CD19+ B cell acute lymphoblastic leukemia cell line
(Generously provided by Dr. Davila Lab) were then added to every well to assay cell numbers. CD19+ and GFP+events were stained and counted by flow for each well after 72 hours.

[4] = tested on: CD19+ B cells; assay: In vivo CAR T cells treated ex vivo; set-up: species or system mouse; conditions: CAR-T cells treated with CB839 during in vitro transduction
Source text: CAR T cells were produced as described elsewhere (see, e.g., Li et al., “Gammaretroviral Production and T Cell Transduction to Genetically Retarget Primary T Cells Against Cancer.” In: Lugli E, ed. T-Cell Differentiation: Methods and Protocols. New York, N.Y.: Springer New York; 2017:111-118). Briefly, spleen T cells were isolated from Thy1.1 B6 mice at day 0. Cells were then activated with mouse CD3/CD28 Dynabeads and 30 IU/ml recombinant human IL2. At day 1 and 2, cells were spin transduced twice with retrovirus carrying CARs. At day 3, cells were fed with fresh medium. At day 4, transduced T cells were harvested, beads removed, evaluated for viability, transduction efficiency, immune phenotype and ready for use. For CB839 treated CAR T cells, CB839 were added to the culture at day 1, 2 and 3 at 1 μM. For in vivo study, C57B6 mice (n=25) were i.p. injected with cyclophosphamide (CTX) at 300 mg/kg. Mice were i.v. injected with 3×10^5 CAR T cells one day after CTX injection. Peripheral blood (PB) samples were collected 1, 2, 4 and 6 weeks after CAR T injection, stained with B cell and T cell antibodies and subjected to flow cytometry. […]
CAR T cells were produced as previously described (Li et al., 2017). […] At day 4, transduced T cells were harvested, beads removed, evaluated for viability, transduction efficiency, immune phenotype and ready for use. […]

O=C(Cc1cccc(OC(F)(F)F)c1)Nc1ccc(CCCCc2nnc(NC(=O)Cc3ccccn3)s2)nn1 [CB839]
N-carbamoyl-aspartate [1]: decreased
TCA intermediates fractional labeling with glucose-derived 13C [1]: increased fractional labeling
TCA intermediates overall abundance [1]: reduced in overall abundance
aspartate levels [1]: decreased significantly
glucose-derived 13C in glutamate and aspartate [1]: increased in both glutamate and aspartate
glutamate [1]: decreased glutamate
glycine abundance [1]: unchanged
glycolytic intermediates abundance [1]: more abundant
intracellular glutamine [1]: increased intracellular glutamine
lactate levels and 13C-labeling [1]: unchanged
pyruvate abundance [1]: decreased
serine and alanine abundance [1]: also decreased
2-hydroxyglutarate (2-HG) ([2]; Th1, CB839-treated vs vehicle): increased in both Th1 and Th17
intracellular α-KG ([2]; Th1, CB839-treated vs vehicle): reduced
programs of intracellular metabolites ([2]; Th1, differentiated with CB839, 5 days): shifted
glutamate and aspartate levels ([2]; Th1, over five days): rapidly decreased
steady state levels of glutamine ([2]; Th1, over five days): rapidly increased
Hits ([2]; Alanine, aspartate and glutamate metabolism): 8
Hits ([2]; Arginine and proline metabolism): 6
Hits ([2]; Butanoate metabolism): 3
Hits ([2]; Citrate cycle (TCA cycle)): 5
Hits ([2]; Cysteine and methionine metabolism): 3
Hits ([2]; D-Glutamine and Dglutamate metabolism): 3
Hits ([2]; Histidine metabolism): 3
Hits ([2]; Nitrogen metabolism): 2
Hits ([2]; Pyrimidine metabolism): 6
Hits ([2]; Pyruvate metabolism): 3
elimination of B cell leukemia cells in vitro [3]: greater ability to eliminate B cell leukemia cells in vitro
CAR-T cell accumulation / persistence in vivo [4]: accumulated in vivo to a greater extent; also recorded: enhances T cell persistence
elimination of CD19+ targets in vivo [4]: equivalently capable; also recorded: equally capable of eliminating CD19+ targets in vivo
